From the NIST ThermoML archive (doi:10.1021/je8007606)
Numbers after ± are expanded uncertainties.

Assay: excess molar enthalpy (molar enthalpy of mixing); xn = mol fraction of the nth substance listed
Conditions: 298.15 K, 101 kPa, Liquid, Calvet calorimetry

CCCCCCCCC [nonane] + CCCO
Conditions	excess molar enthalpy [kJ/mol]
x2 = 0.0794	0.494 ± 0.011
x2 = 0.1401	0.604 ± 0.013
x2 = 0.2595	0.711 ± 0.015
x2 = 0.3588	0.727 ± 0.016
x2 = 0.441	0.723 ± 0.016
x2 = 0.5192	0.69 ± 0.015
x2 = 0.5829	0.646 ± 0.014
x2 = 0.7046	0.539 ± 0.012
x2 = 0.7517	0.488 ± 0.011
x2 = 0.7992	0.419 ± 0.009
x2 = 0.8361	0.36 ± 0.008
x2 = 0.878	0.282 ± 0.006
x2 = 0.911	0.218 ± 0.005
x2 = 0.9469	0.139 ± 0.003
x2 = 0.9689	0.086 ± 0.002
